Consider five compounds from BindingDB's records for doi:10.1016/j.ejmech.2018.08.069 (Kanazawa University, 2018).

The structures appear in SMILES notation.

A short description of this assay: Antagonist activity at AR in human LNCAP cells assessed as reduction in DHT-induced cell growth treated for every 2 days for 4 days by hemocytometry.
In general, IC50 refers to the concentration that inhibits the measured activity by half. On to `COc1ccc(O)c(C(=O)/C=C/c2ccccc2OC)c1`, for which the IC50 was > 10 µM.
Next, `CC(C)Oc1ccccc1/C=C/C(=O)c1cc(Br)ccc1O`: 9.11 µM; `O=C(/C=C/c1ccccc1O)c1cc(Cl)ccc1O`: 3.74 µM.
Then `O=C1CC(c2ccccc2O)Oc2ccccc21` (stereo not given) [2-(2-Hydroxy-phenyl)-chroman-4-one], with 6.4 µM.
Turning to `O=c1cc(-c2ccccc2O)oc2ccccc12` [2-(2-Hydroxyphenyl)-4H-chromen-4-one (3d)], the half-maximal inhibitory concentration (IC50) was > 10 µM.
